# Laboratory results reported in PubChem BioAssay AID330 (DTP/NCI, 2004).
# Where “and” joins values, the source holds several entries; their conditions need not be identical. Identical values can stand only once. Toxic doses and inconclusive results are not listed.
# Test system: P388 leukemia ip, CD2F1 mice, survival T/C
# Test: NCI In Vivo Anticancer Drug Screen. Data for tumor model P388 Leukemia (intraperitoneal) in CD2F1 (CDF1) mice
# Details: endpoint: median survival time, higher = longer survival
# Method in brief: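 Mice carrying the transplanted tumor received test compound or vehicle. Survival was recorded in each group, and the value is the treated-group measurement divided by that of the vehicle-treated control group.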
# [1] = dose: 50.0 mg/kg/injection, schedule: Q01DX009 (ip), vehicle: saline with Tween-80
# [2] = dose: 100.0 mg/kg/injection, schedule: Q01DX009 (ip), vehicle: saline with Tween-80
# [3] = dose: 60.0 mg/kg/injection, schedule: Q01DX005 (ip), vehicle: Klucel (hydroxypropylcellulose) (HPC)
# [4] = dose: 120.0 mg/kg/injection, schedule: Q01DX005 (ip), vehicle: Klucel (hydroxypropylcellulose) (HPC)
# [5] = dose: 12.5 mg/kg/injection, schedule: Q01DX009 (ip), vehicle: saline with Tween-80
# [6] = dose: 25.0 mg/kg/injection, schedule: Q01DX009 (ip), vehicle: saline with Tween-80
# [7] = dose: 6.25 mg/kg/injection, schedule: Q01DX009 (ip), vehicle: Klucel (hydroxypropylcellulose) (HPC)
# [8] = dose: 12.5 mg/kg/injection, schedule: Q01DX009 (ip), vehicle: Klucel (hydroxypropylcellulose) (HPC)
# [9] = dose: 50.0 mg/kg/injection, schedule: Q01DX009 (ip), vehicle: Klucel (hydroxypropylcellulose) (HPC)
# [10] = dose: 100.0 mg/kg/injection, schedule: Q01DX009 (ip), vehicle: Klucel (hydroxypropylcellulose) (HPC)
# [11] = dose: 50.0 mg/kg/injection, schedule: Q01DX005 (ip), vehicle: saline with Tween-80
# [12] = dose: 100.0 mg/kg/injection, schedule: Q01DX005 (ip), vehicle: saline with Tween-80
# [13] = dose: 200.0 mg/kg/injection, schedule: Q01DX005 (ip), vehicle: saline with Tween-80
# [14] = dose: 100.0 mg/kg/injection, schedule: Q04DX003 (ip), vehicle: saline
# [15] = dose: 100.0 mg/kg/injection, schedule: Q04DX003 (ip), vehicle: Klucel (hydroxypropylcellulose) (HPC)
# [16] = dose: 200.0 mg/kg/injection, schedule: Q04DX003 (ip), vehicle: Klucel (hydroxypropylcellulose) (HPC)
# [17] = dose: 25.0 mg/kg/injection, schedule: Q01DX009 (ip), vehicle: Klucel (hydroxypropylcellulose) (HPC)
# [18] = dose: 200.0 mg/kg/injection, schedule: Q01DX009 (ip), vehicle: saline with Tween-80
structure (smiles),measurement,setting,value
CCN(CC)CCNc1c(OC)cc(C)c2sc3ccccc3c(=O)c12,T/C,[1],115 % of control
same,T/C,[2],117 % of control
CC1(C)N=NC([Si](C)(C)C)=C1C(=O)c1ccccc1,T/C,[3],101 % of control
same,T/C,[4],98 % of control
same,T/C,"dose: 240.0 mg/kg/injection, schedule: Q01DX005 (ip), vehicle: Klucel (hydroxypropylcellulose) (HPC)",105 % of control
N=C(N)SCc1nc(-c2ccc(Cl)cc2)no1,T/C,"dose: 6.25 mg/kg/injection, schedule: Q01DX009 (ip), vehicle: saline with Tween-80",109 % of control
same,T/C,"dose: 6.25 mg/kg/injection, schedule: Q01DX009 (ip), vehicle: saline",98 % of control
same,T/C,[5],106 % of control
same,T/C,"dose: 12.5 mg/kg/injection, schedule: Q01DX009 (ip), vehicle: saline",104 % of control and 106 % of control
same,T/C,[6],106 % of control
same,T/C,"dose: 25.0 mg/kg/injection, schedule: Q01DX009 (ip), vehicle: saline",108 % of control and 111 % of control
same,T/C,[1],113 % of control
same,T/C,"dose: 50.0 mg/kg/injection, schedule: Q01DX009 (ip), vehicle: saline",110 % of control and 121 % of control and 123 % of control
CN(C(=S)S(C)(=O)=O)c1ccccc1,T/C,"dose: 3.12 mg/kg/injection, schedule: Q01DX009 (ip), vehicle: Klucel (hydroxypropylcellulose) (HPC)",102 % of control
same,T/C,[7],100 % of control
same,T/C,[8],86 % of control
CN(C)c1cc(N(C)C)c2cc(Cl)ccc2n1,T/C,[9],106 % of control
same,T/C,[10],100 % of control
COc1cccc2c1NC(OC)C1CC(/C=C/C(=O)N(C)C)=CN1C2=O (stereo not drawn),T/C,"dose: 320.0 micrograms/kg/injection, schedule: Q01DX005 (ip), vehicle: saline with Tween-80",155 % of control
CC1N2CCc3ccccc3C2C2c3ccccc3CCN21 (stereo not drawn),T/C,"dose: 12.5 mg/kg/injection, schedule: Q01DX001 (ip), vehicle: suspension in saline",111 % of control
same,T/C,"dose: 25.0 mg/kg/injection, schedule: Q01DX001 (ip), vehicle: suspension in saline",111 % of control
same,T/C,"dose: 50.0 mg/kg/injection, schedule: Q01DX001 (ip), vehicle: suspension in saline",102 % of control and 118 % of control
CCCCc1c(O)c(N=NC(=O)C[N+](C)(C)C)c2ccccc2c1O,T/C,[11],104 % of control
same,T/C,[12],110 % of control
same,T/C,[13],108 % of control
Nc1ncc([N+](=O)[O-])c(Cl)n1,T/C,[5],105 % of control
same,T/C,[6],105 % of control
same,T/C,[1],105 % of control
C1CC2CCC1CNC2,T/C,"dose: 25.0 mg/kg/injection, schedule: Q04DX003 (ip), vehicle: saline",104 % of control
same,T/C,"dose: 50.0 mg/kg/injection, schedule: Q04DX003 (ip), vehicle: saline",104 % of control
same,T/C,[14],95 % of control
CC(C)CC([N+](C)(C)C)P(=O)([O-])O (stereo not drawn),T/C,"dose: 100.0 mg/kg/injection, schedule: Q01DX009 (ip), vehicle: saline",100 % of control
same,T/C,"dose: 200.0 mg/kg/injection, schedule: Q01DX009 (ip), vehicle: saline",95 % of control
same,T/C,"dose: 400.0 mg/kg/injection, schedule: Q01DX009 (ip), vehicle: saline",100 % of control
OCC1(CO)C(O)C2CCN1CC2 (stereo not drawn),T/C,[15],108 % of control
same,T/C,[16],110 % of control
same,T/C,"dose: 400.0 mg/kg/injection, schedule: Q04DX003 (ip), vehicle: Klucel (hydroxypropylcellulose) (HPC)",108 % of control
COC(=O)NN(C(=O)OC)C12CCCC1N(C(=O)OC)N(C(=O)OC)c1c2ccc2cc(OC)ccc12 (stereo not drawn),T/C,"dose: 100.0 mg/kg/injection, schedule: Q04DX002 (ip), vehicle: Klucel (hydroxypropylcellulose) (HPC)",99 % of control
same,T/C,"dose: 200.0 mg/kg/injection, schedule: Q04DX002 (ip), vehicle: Klucel (hydroxypropylcellulose) (HPC)",92 % of control
same,T/C,"dose: 400.0 mg/kg/injection, schedule: Q04DX002 (ip), vehicle: Klucel (hydroxypropylcellulose) (HPC)",90 % of control
O=c1c2ccccc2c(=O)c2c1ccc1[nH]c3ccccc3n(-c3ccccc3)c12,T/C,"dose: 50.0 mg/kg/injection, schedule: Q01DX005 (ip), vehicle: Klucel (hydroxypropylcellulose) (HPC)",101 % of control
same,T/C,"dose: 100.0 mg/kg/injection, schedule: Q01DX005 (ip), vehicle: Klucel (hydroxypropylcellulose) (HPC)",100 % of control
same,T/C,"dose: 200.0 mg/kg/injection, schedule: Q01DX005 (ip), vehicle: Klucel (hydroxypropylcellulose) (HPC)",100 % of control
C=C1C(=O)O[C@H]2CC3=CCC[C@H](C)[C@@]3(C)C[C@@H]12,T/C,"dose: 2.25 mg/kg/injection, schedule: Q01DX005 (ip), vehicle: Klucel (hydroxypropylcellulose) (HPC)",100 % of control
same,T/C,"dose: 4.5 mg/kg/injection, schedule: Q01DX005 (ip), vehicle: Klucel (hydroxypropylcellulose) (HPC)",96 % of control
same,T/C,"dose: 9.0 mg/kg/injection, schedule: Q01DX005 (ip), vehicle: Klucel (hydroxypropylcellulose) (HPC)",99 % of control
same,T/C,"dose: 18.0 mg/kg/injection, schedule: Q01DX005 (ip), vehicle: Klucel (hydroxypropylcellulose) (HPC)",101 % of control
same,T/C,"dose: 36.0 mg/kg/injection, schedule: Q01DX005 (ip), vehicle: Klucel (hydroxypropylcellulose) (HPC)",99 % of control
CC#CC#C/C=C1/C=CC2(CCCCO2)O1 (stereo not drawn),T/C,[8],100 % of control
same,T/C,[17],101 % of control
same,T/C,[9],107 % of control
same,T/C,[10],104 % of control
O=P(O)(O)SP(=O)(O)O.[Zn+2],T/C,[15],101 % of control
same,T/C,[16],105 % of control
CN1C(=O)C2C(N(C3OC(CO)C(O)C3O)C1=O)C2(Cl)Cl (stereo not drawn),T/C,"dose: 75.0 mg/kg/injection, schedule: Q04DX003 (ip), vehicle: saline",100 % of control
same,T/C,[14],100 % of control
same,T/C,"dose: 150.0 mg/kg/injection, schedule: Q04DX003 (ip), vehicle: saline",99 % of control
same,T/C,"dose: 200.0 mg/kg/injection, schedule: Q04DX003 (ip), vehicle: saline",99 % of control
same,T/C,"dose: 300.0 mg/kg/injection, schedule: Q04DX003 (ip), vehicle: saline",102 % of control
same,T/C,"dose: 400.0 mg/kg/injection, schedule: Q04DX003 (ip), vehicle: saline",99 % of control
CCCCCCCCCCCCCCCCCC[N+]1(CCCC)CCOCC1,T/C,[5],102 % of control
same,T/C,[6],108 % of control
same,T/C,[1],101 % of control and 114 % of control
Cn1c(/C=N/N2CCOCC2)cnc1[N+](=O)[O-],T/C,[1],106 % of control
same,T/C,[2],109 % of control
same,T/C,[18],110 % of control
CC(C)(Oc1ccc(-c2cccc3ccccc23)cc1)C(=O)O,T/C,[7],97 % of control
same,T/C,[8],95 % of control
same,T/C,[17],101 % of control
same,T/C,[10],111 % of control
same,T/C,"dose: 200.0 mg/kg/injection, schedule: Q01DX009 (ip), vehicle: Klucel (hydroxypropylcellulose) (HPC)",119 % of control
Cc1ccc(S(=O)(=O)NCc2cccc(CNS(=O)(=O)c3ccc(C)cc3)c2)cc1,T/C,[1],104 % of control
same,T/C,[2],89 % of control
same,T/C,[18],100 % of control
COC(=O)C1CC2C3C=CC(C4C(=O)NC(=O)C34)C12OC (stereo not drawn),T/C,"dose: 100.0 mg/kg/injection, schedule: Q01DX001 (ip), vehicle: saline with Tween-80",95 % of control
same,T/C,"dose: 200.0 mg/kg/injection, schedule: Q01DX001 (ip), vehicle: saline with Tween-80",92 % of control
C/C(=N\NC(=S)Nc1ccc(C(=O)O)cc1C)c1ccc2ccccc2n1,T/C,[11],109 % of control
same,T/C,[12],107 % of control
same,T/C,[13],119 % of control
NC(CSC(c1ccccc1)(c1ccccc1)c1ccc(CO)cc1)C(=O)O (stereo not drawn),T/C,[5],118 % of control
CCOC(=O)CC(=O)c1ccoc1,T/C,[11],110 % of control
same,T/C,[12],105 % of control
same,T/C,[13],110 % of control
Oc1cc2c(cc1C(c1ccc(Cl)cc1)N1CCOCC1)OCO2 (stereo not drawn),T/C,"dose: 60.0 mg/kg/injection, schedule: Q01DX005 (ip), vehicle: saline with Tween-80",102 % of control
same,T/C,"dose: 120.0 mg/kg/injection, schedule: Q01DX005 (ip), vehicle: saline with Tween-80",111 % of control
same,T/C,"dose: 240.0 mg/kg/injection, schedule: Q01DX005 (ip), vehicle: saline with Tween-80",124 % of control
Oc1cc2c(cc1C(c1ccc(Cl)cc1)N1CCN(C(c3ccc(Cl)cc3)c3cc4c(cc3O)OCO4)CC1)OCO2 (stereo not drawn),T/C,[3],89 % of control
same,T/C,[4],88 % of control
